According to US20060106099A1, “Novel inhibitors of ubiquitin isopeptidases” (priority 2002, published 2006):
Where two headings read alike, the source gives them in different places.

What was measured:
RKO-E6 = assay: MTS cytotoxicity, RKO-E6 cells; type: cell-based; conditions: Homo sapiens, RKOE6, log of EC50 in μM, 48 h, read-out: Log EC50 +/− Standard Error of Log EC50, RKO-E6 (converted)
Experimental: (§1) Cytotoxicity in Human Colon Tumor (RKO) Cell Lines. Punaglandins (8) and (10) were also assayed for p53-independent cytotoxicity in RKO and RKO-E6 cells. Each cell line was seeded simultaneously in 96-well plates and incubated for 24 h before treatment with PNG 4 (8) and PNG 6 (10) at various concentrations for 48 h. Cytotoxicity was determined using MTS and absorbances were recorded at 490 nm. Log EC50s and EC50s were calculated from a concentration-response curve generated using GraphPad Prism (Table 2).

HCT 116 (p53 wt) = assay: MTS cytotoxicity, HCT 116 (p53 wt); type: cell-based; conditions: Homo sapiens, 48 h
Description: (§2) Cytotoxicity in Human Colon Tumor (HCT) Cell Lines. To determine if punaglandins elicit cytotoxicity independently of the tumor-suppressor p53, as do other dienone prostaglandins, several cytotoxicity assays were employed. First, cell death effects of all isolated punaglandins were investigated in pairs of isogenic colon cancer cell lines, the HCT 116^+/+ competent cell line and HCT 116^−/− null cell lines. HCT 116^+/+ cells are homozygous for p53^+/+ and p21^+/+; where as, HCT 116^−/− cells lack both alleles for p53 (p53^−/−) or p21 (p21^−/−).
(§3) Each cell line was seeded simultaneously in 96-well plates and incubated for 24 h before treatment with individual punaglandins at various concentrations for 48 additional h. Cytotoxicity was determined using MTS and absorbances were recorded at 490 nm. Half maximal effective concentrations (EC50) and Log EC50s were calculated from a concentration-response curve generated using GraphPad Prism (Table 1).

p53 = p53 accumulation ratio in RKO-E6 and RKO cells, punaglandin study; type: cell-based, human; conditions: 7 μM, 6 h
Experimental: To determine if punaglandins inhibit p53 degradation by disrupting the proteasome pathway, the accumulation ratio of p53 was determined in RKO and RKO-E6 cells treated with selected punaglandins, PNG 4 (8) and PNG 6 (10). Equally seeded RKO and RKO-E6 cells were treated with vehicle (0.5% DMSO), 50 μM Etoposide, 60 μM PGA2 (3), 7 μM PNG 6 (10), and 7 μM PNG 4 (8). After 6 h incubation with vehicle or drug, cells were lysed and harvester. […] of protein from each lysate was fractionated by SDS-PAGE and probed for p53 protein. The p53 band intensities were then analyzed and quantitated using densitometry. The ratio of p53 in RKO-E6 to RKO cells was calculated by dividing the amount of p53 in RKO-E6 cells by the amount in RKO cells and multiplying by 100 to give percent

HCT 116 (p21^−/−) = assay: MTS cytotoxicity, HCT 116 (p21−/−); type: cell-based; conditions: Homo sapiens, log of EC50 in μM, 48 h, read-out: Log EC50 +/− Standard Error of Log EC50, HCT 116 (p21−/−) (converted)
Description: as §2, §3

HCT 116 (p53^−/−) = assay: MTS cytotoxicity, HCT 116 (p53−/−); type: cell-based; conditions: Homo sapiens, log of EC50 in μM, 48 h, read-out: Log EC50 +/− Standard Error of Log EC50, HCT 116 (p53−/−) (converted)
Description: as §2, §3

RKO = assay: MTS cytotoxicity, RKO cells; type: cell-based; conditions: Homo sapiens, 48 h
Experimental: as §1

caspase-3 = assay: Caspase-3 activity in RKO cells (DEVD-AMC); type: cell-based, human; conditions: PNG 4 0.5 μM, PNG 6 1 μM, Taxol 1 μM
Experimental: To determine if selected punaglandins, PNG 4 (8) and PNG 6 (10) also induce apoptosis in RKO cells in a time dependent manner, caspase-3 activity was determined. During apoptosis the caspases, a family of cysteinyl aspartate-specific proteases, are activated. These enzymes cleave specific substrates resulting in biochemical and morphological changes associated with apoptosis. Therefore, detection of activated caspases can be used as a biochemical marker for apoptosis. Caspase-3 has substrate specificity for the amino acid sequence Asp-Glu-Val-Asp (DEVD), cleaving after Asp, and therefore caspase activity can be measured by monitoring cleavage of the substrate DEVD-AMC (Asp-Glu-Val-Asp-7-amino-4-[…]).
RKO cells were treated for 4, 8, and 12 h with PNG 4 (8) at 0.5 μM and PNG 6 (10) at 1 μM. Taxol, a known apoptotic inducer at 1 μM, was used as a positive control, and negative control cells were treated with vehicle (0.5% DMSO). Caspase-3 activity rose steadily as expected from 4-12 h in cells treated with PNG 4 (8), PNG 6 (10), and Taxol but remained constant in the untreated control cells.

ubiquitin isopeptidases = assay: In vivo isopeptidase activity after treatment of RKO cells, Ub-PEST; type: cell-based, human
Experimental: Isopeptidase Assay. It was hypothesized that the punaglandins would inhibit ubiquitin-isopeptidase activity of the proteasome pathway as does the prostaglandin, Δ^12-PGJ2 (1), but with greater potency because of the chlorinated C-10. To validate this theory, cellular isopeptidase enzymatic activity was measured in vitro after treatment with individual punaglandins, PNG 2 (6), PNG 3 (7), and Z-PNG 4 (9) and in vivo after individual treatment with PNG 4 (8) and PNG 6 (10). This activity was determined utilizing the simple isopeptidase substrate, ubiquitin-PEST (Ub-PEST), a full/length ubiquitin (Ub) molecule fused with an 18-amino acid C-terminal peptide extension that most isopeptidases use as a substrate. The polypeptide extension contains regions rich in Pro (P), Glu (E), Ser (S), and Thr (T) residues called PEST motifs that are responsible for rapid degradation of these and other unstable proteins. Ub isopeptidases specifically cleave this peptide extension, yielding free, full-length Ub. Both the fused Ub-PEST (10.5 kDa) and the cleaved, free Ub (8.5 kDa) can be observed via immunochemical detection.
In vivo Isopeptidase Activity. To investigate whether punaglandins can inhibit isopeptidase activity in vivo, isopeptidase activity was analyzed after punaglandin treatment of RKO cells. PNG 4 (8) and PNG 6 (10) were selected for in vivo investigation because they differ only in enone functionality, where (8) is a dienone and (10) an enone. RKO cells were incubated with 1 μM, 4 μM, or 7 μM of PNG 4 (8) and PNG 6 (10). […] As a positive control, cells were treated with a known isopeptidase inhibitor, shikoccin (SK). After 6 h drug treatment, cells were lysed and protein concentration adjusted to 0.3 mg/mL per sample. Each sample was subsequently incubated with 50 μg/mL of Ub-PEST. The reaction was terminated after 20 min and the respective amounts of Ub-PEST (10 kDa) and free Ub product (8.5 kDa) were determined by SDS-PAGE fractionation.

HCT 116 (p21 wt) = assay: MTS cytotoxicity, HCT 116 (p21 wt); type: cell-based; conditions: Homo sapiens, log of EC50 in μM, 48 h, read-out: Log EC50 +/− Standard Error of Log EC50, HCT 116 (p21 wt) (converted)
Description: as §2, §3

CCCCC/C=C\C[C@@]1(O)C=C(Cl)C(=O)/C1=C/[C@H](OC(C)=O)[C@H](CCCC(=O)OC)OC(C)=O [PNG 4]
EC50 (RKO-E6): 0.372 µM
EC50 (HCT 116 (p53 wt); average over the three compounds, read-out: average EC50 of PNG 3, PNG 4 and PNG 6, cytotoxicity in HCT 116 cell lines): ~0.35 µM
EC50 (HCT 116 (p53 wt); log of EC50 in μM, read-out: Log EC50 +/− Standard Error of Log EC50, HCT 116 (p53 wt) (converted)): 0.331 µM
accumulation of p53 in RKO and RKO-E6 cells (p53): showed enhanced accumulation of p53
EC50 (HCT 116 (p21^−/−)): 0.282 µM
EC50 (HCT 116 (p53^−/−)): 0.355 µM
EC50 (RKO; read-out: EC50 in RKO cell lines, punaglandins): 0.31 µM
EC50 (RKO; log of EC50 in μM, read-out: Log EC50 +/− Standard Error of Log EC50, RKO (converted)): 0.309 µM
Caspase-3 activity from 4-12 h (caspase-3): rose steadily
Ub-Pest degradation, % of the control (densitometry) (ubiquitin isopeptidases; 7 μM, 6 h): 67%
concentration of noticeable inhibition of Ub-PEST degradation (ubiquitin isopeptidases; 6 h treatment): 7 µM
EC50 (HCT 116 (p21 wt)): 0.339 µM
